From patent US8236810B2, “Substituted 8-aminoalkylthioxanthines, and their use as inhibitors of dipeptidyl peptidase IV” (Sanofi-Aventis Deutschland GmbH, priority 2004, dated 2012)
Where a name gives a salt, the structure may show the parent alone.

biological target: T1, DPP-IV from porcine kidney (Sus scrofa, UniProt P22411); test: Measurement of the DPP-IV activity (fluorimetric H-Ala-Pro-AFC conversion); assay type: biochemical; details: substrate H-Ala-Pro-AFC 15 μM, DPP-IV 1 mU/ml, Tris/HCl pH 7.4, room temperature
T1 construct: DPP-IV from porcine kidney (Sigma Chemical Co, Munich DE); purchased Sigma Chemical Co, Munich DE; host or cells: porcine kidney (tissue-derived)
T1 sequence (P22411 whole entry): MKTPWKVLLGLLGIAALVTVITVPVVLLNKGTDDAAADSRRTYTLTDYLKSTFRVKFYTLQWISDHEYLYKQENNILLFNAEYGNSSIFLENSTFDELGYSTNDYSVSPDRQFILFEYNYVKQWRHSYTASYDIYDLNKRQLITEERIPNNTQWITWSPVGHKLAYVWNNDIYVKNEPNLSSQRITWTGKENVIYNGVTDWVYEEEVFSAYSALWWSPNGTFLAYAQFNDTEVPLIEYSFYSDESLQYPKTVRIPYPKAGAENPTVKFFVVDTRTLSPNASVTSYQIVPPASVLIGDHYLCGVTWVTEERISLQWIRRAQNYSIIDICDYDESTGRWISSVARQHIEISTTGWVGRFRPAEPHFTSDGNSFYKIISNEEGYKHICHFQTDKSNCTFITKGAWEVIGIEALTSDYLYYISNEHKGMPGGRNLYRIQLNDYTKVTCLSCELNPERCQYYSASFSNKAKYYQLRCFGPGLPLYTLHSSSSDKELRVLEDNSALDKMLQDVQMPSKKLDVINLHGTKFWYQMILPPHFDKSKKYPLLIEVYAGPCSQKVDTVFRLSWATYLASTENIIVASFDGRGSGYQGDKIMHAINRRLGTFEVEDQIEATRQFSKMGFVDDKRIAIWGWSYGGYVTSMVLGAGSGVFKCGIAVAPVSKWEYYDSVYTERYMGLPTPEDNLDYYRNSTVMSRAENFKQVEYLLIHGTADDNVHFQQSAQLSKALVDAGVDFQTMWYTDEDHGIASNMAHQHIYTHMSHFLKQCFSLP
Experimental: a) Measurement of the DPP-IV Activity:
DPP-IV from porcine kidney (Sigma Chemical Co, Munich DE)
H-Ala-Pro-AFC (Bachem Chemical Co, Weil am Rhein DE)
Dipeptidyl peptidase-IV (DPP-IV) (1 mU/ml, final concentration)
H-Ala-Pro-AFC (15 μM, final concentration) in Tris/HCl (40 mM, pH 7.4), total volume 0.2 ml
The reaction was carried out at room temperature for various times (typically 10 min) and stopped at the end of the reaction by adding 20 μl of ZnCl2(1M). The H-Ala-Pro-AFC conversion was determined fluorimetrically by measuring the emission at 535 nm after excitation at 405 nm. When inhibitors were added, the added buffer volume was adapted so that a total volume of 200 μl was maintained for the assay mixture.
IC50 values for inhibitors were determined by varying the inhibitor concentrations with the stated substrate concentration of 15 μM. Ki and Km values were found by appropriate variation of substrate concentration and inhibitor concentration as described (Dixon, M. and Webb, E. C.(1979) Enzymes, third edition, pp. 47-206, Academic Press). The values for Km, IC50 and Ki were calculated using a commercially available software package (Leatherbarrow, R. J. (1992) GraFit Version 3.0, Erithacus Software Ltd. Staines, U.K.).

IC50	Compound
1.7 nM	CC(C)=CCn1c(SC(C)(C)CN)nc2c1c(=O)n(CC(=O)c1ccccc1)c(=O)n2C [Example 1, 8-(2-Amino-1,1-dimethylethylsulfanyl)-3-methyl-7-(3-methylbut-2-enyl)-1-(2-oxo-2-phenylethyl)-3,7-dihydropurine-2,6-dione]
72 nM	CC(C)=CCn1c(SCCN)nc2c1c(=O)n(CC(=O)c1ccccc1)c(=O)n2C [Example 3, 8-(2-Aminoethylsulfanyl)-3-methyl-7-(3-methylbut-2-enyl)-1-(2-oxo-2-phenylethyl)-3,7-dihydropurine-2,6-dione]
84 nM	CC(C)=CCn1c(SC(C)(C)CN)nc2c1c(=O)[nH]c(=O)n2C [Example 5, 8-(2-Amino-1,1-dimethylethylsulfanyl)-3-methyl-7-(3-methylbut-2-enyl)-3,7-dihydropurine-2,6-dione]
120 nM	CC(C)=CCn1c(SCC(C)(C)N)nc2c1c(=O)n(CC(=O)c1ccccc1)c(=O)n2C [Example 10, 8-(2-Amino-2-methylpropylsulfanyl)-3-methyl-7-(3-methylbut-2-enyl)-1-(2-oxo-2-phenylethyl)-3,7-dihydropurine-2,6-dione]
90 nM	CC(C)=CCn1c(SC(C)(C)CN)nc2c1c(=O)n(Cc1nnc(C3CC3)s1)c(=O)n2C [Example 12, 8-(2-Amino-1,1-dimethylethylsulfanyl)-1-(5-cyclopropyl-[1,3,4]thiadiazol-2-ylmethyl)-3-methyl-7-(3-methylbut-2-enyl)-3,7-dihydropurine-2,6-dione]
24 nM	CC(C)=CCn1c(SC(C)(C)CN)nc2c1c(=O)n(Cc1nc3cc(F)ccc3s1)c(=O)n2C [Example 19, 8-(2-Amino-1,1-dimethylethylsulfanyl)-1-(5-fluorobenzothiazol-2-ylmethyl) -3-methyl-7-(3-methylbut-2-enyl)-3,7-dihydropurine-2,6-dione]
170 nM	CC(C)=CCn1c(SC(C)(C)CN)nc2c1c(=O)n(Cc1cc(C)on1)c(=O)n2C [Example 21, 8-(2-Amino-1,1-dimethylethylsulfanyl)-3-methyl-7-(3-methylbut-2-enyl)-1-(5-methylisoxazol-3-ylmethyl)-3,7-dihydropurine-2,6-dione hydrochloride]
4.5 nM	CCn1c(=O)n(CC(=O)c2ccccc2)c(=O)c2c1nc(SC(C)(C)CN)n2CC=C(C)C [Example 23, 8-(2-Amino-1,1-dimethylethylsulfanyl)-3-ethyl-7-(3-methylbut-2-enyl)-1-(2-oxo-2-phenylethyl)-3,7-dihydropurine-2,6-dione]
9.4 nM	CC(C)=CCn1c(SC(C)(C)CN)nc2c1c(=O)n(CC(=O)c1ccccc1)c(=O)n2C1CC1 [Example 24, 8-(2-Amino-1,1-dimethylethylsulfanyl)-3-cyclopropyl-7-(3-methylbut-2-enyl) -1-(2-oxo-2-phenylethyl)-3,7-dihydropurine-2,6-dione]
48 nM	CC(C)=CCn1c(SC(C)(C)CN)nc2c1c(=O)n(CCc1ccccc1)c(=O)n2C1CC1 [Example 25, 8-(2-Amino-1,1-dimethylethylsulfanyl)-3-cyclopropyl-7-(3-methylbut-2-enyl) -1-phenethyl-3,7-dihydropurine-2,6-dione]
27 nM	CC#CCn1c(SC(C)(C)CN)nc2c1c(=O)n(CC(=O)c1ccccc1)c(=O)n2C [Example 26, 8-(2-Amino-1,1-dimethylethylsulfanyl)-7-but-2-ynyl-3-methyl-1-(2-oxo-2-phenylethyl)-3,7-dihydropurine-2,6-dione]
21 nM	CC(C)=CCn1c(SC(C)(C)CN)nc2c1c(=O)n(CC(=O)c1ccccc1)c(=O)n2CC(F)(F)F [Example 36, 8-(2-Amino-1,1-dimethylethylsulfanyl)-7-(3-methylbut-2-enyl)-1-(2-oxo-2-phenylethyl)-3-(2,2,2-trifluoroethyl)-3,7-dihydropurine-2,6-dione]
16 nM	CC(C)=CCn1c(SC(C)(C)CN)nc2c1c(=O)n(CC(=O)c1ccccc1Cl)c(=O)n2C [Example 42, 8-(2-Amino-1,1-dimethylethylsulfanyl)-1-[2-(2-chlorophenyl)-2-oxoethyl]-3-methyl-7-(3-methylbut-2-enyl)-3,7-dihydropurine-2,6-dione]
30 nM	CC(C)=CCn1c(SC(C)(C)CN)nc2c1c(=O)n(CC(=O)c1cccc(Cl)c1)c(=O)n2C [Example 43, 8-(2-Amino-1,1-dimethylethylsulfanyl)-1-[2-(3-chlorophenyl)-2-oxoethyl]-3-methyl-7-(3-methylbut-2-enyl)-3,7-dihydropurine-2,6-dione]
14 nM	Cn1c(=O)n(CC(=O)c2ccccc2)c(=O)c2c1nc(SC1(CN)CCCC1)n2Cc1ccccc1 [Example 63, 8-(1-Aminomethylcyclopentylsulfanyl)-7-benzyl-3-methyl-1-(2-oxo-2-phenyl-ethyl)-3,7-dihydropurine-2,6-dione trifluoroacetate]
7 nM	CC(C)=CCn1c(SC2(CN)CCCC2)nc2c1c(=O)n(CC(=O)c1ccccc1)c(=O)n2C [Example 64, 8-(1-Aminomethylcyclopentylsulfanyl)-3-methyl-7-(3-methylbut-2-enyl)-1-(2-oxo-2-phenylethyl)-3,7-dihydropurine-2,6-dione trifluoroacetate]
